# Test results reported in PubChem BioAssay (NCI).
#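 Step 1: Grow cells in 96-well plates. Step 2: Expose to compound for 48 hours at 5 concentrations. Step 3: Interpolate endpoints linearly; if unreached, use highest concentration. Here, GI50 denotes the concentration required for 50% inhibition of growth. Definition used: TGI = concentration required for complete inhibition of growth.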
# System: OVCAR-8 ovarian
# Assay: growth of human tumour cells (NCI), 48 h
SMILES,GI50 [nM],TGI [µM]
CCOC(=O)Nc1ccc(-c2nc(-c3cccc(OCCN4CCOCC4)c3)c(-c3ccnc(Br)c3)[nH]2)cc1,3730,> 100
COc1cc(Cn2c(-c3ccccc3)c(Cl)c3c2-c2oncc2CC3)cc(OC)c1,15900,> 100
COc1ccc(-c2nn(-c3ccc(NC(=O)c4ccc(Cl)c(Cl)c4)cc3)cc2-c2ccncc2)cc1Cl,> 25800,> 50
O=C(CC1(O)C(=O)N(Cc2ccccc2)c2ccc(F)cc21)c1ccc(C(=O)NCC2CCC3(CC2)OOC2(CCCCC2)OO3)cc1 (stereo not drawn),267,0.723
COc1cc2c3c(n(C)c(=O)c2cc1OC)-c1cc2c(cc1/C3=C\CN)OCO2,774,> 51.9
COc1ccc(/C=C2/N=C(c3ccccc3)N(c3c(C)n(C)n(-c4ccccc4)c3=O)C2=O)cc1OC,> 100000,> 100
C[C@@H]1CC[C@@H]2[C@@H]1[C@H](OC(=O)/C=C/c1ccccc1)[C@]1(C3CCCCC3)C[C@@H](OC(=O)CO)[C@@]2(C)O1,513,13
CCCN1C(=O)N(CCC)C2C1NC(=S)N2/N=C/C=C/c1ccccc1OC (stereo not drawn),1560,> 62.6
CCn1c2ccccc2c2cc(NC(=O)Nc3ccc([N+](=O)[O-])cc3C)ccc21,4610,37.7
COc1cc2c(c(OC)c1OC)-c1ccc(SC)c(=O)cc1C(NC=O)CC2 (stereo not drawn),–,> 68.5
CCSc1ncnc2c1ncn2C1OC(CO)C(O)C1O (stereo not drawn),296,16
O=C(CSc1nc2ccccc2nc1-c1ccccc1)Nc1ccc(F)cc1,30000,> 100
CC[C@H]1[C@@H]2C=C[C@@H]3[C@H]4C/C=C\C(=O)NCCC[C@@H]5NC(=O)/C(=C(O)/C=C/[C@@H]4C[C@@H]3[C@H]2C[C@H]1C)C5=O,333,1.37
CN1C(=O)N(C)C2C1NN=c1s/c(=C\c3ccc(Cl)cc3Cl)c(=O)n12 (stereo not drawn),399,> 100
Cc1ccc(NC(=O)CC2CC2)cc1-c1ccc(C(=O)NCC2CC2)cc1,> 25000,> 25
CNCC#Cc1c(F)ccc2c1/C(=C/c1[nH]ccc1OC)C(=O)N2,161,3.22
COc1cc(-n2cc(-c3ccc(F)cc3)[nH]c2=O)cc(OC)c1OC,> 100000,> 100
Cn1cc(C2=C(c3cn(CCCCO)c4ccccc34)C(=O)NC2=O)c2ccccc21,8610,24.8

# System: HS 578T breast
# Assay: growth of human tumour cells (NCI), 48 h
SMILES,GI50 [nM],TGI [µM]
CCOC(=O)Nc1ccc(-c2nc(-c3cccc(OCCN4CCOCC4)c3)c(-c3ccnc(Br)c3)[nH]2)cc1,1550,4.91
COc1cc(Cn2c(-c3ccccc3)c(Cl)c3c2-c2oncc2CC3)cc(OC)c1,3710,82.3
COc1ccc(-c2nn(-c3ccc(NC(=O)c4ccc(Cl)c(Cl)c4)cc3)cc2-c2ccncc2)cc1Cl,1050,3.37
O=C(CC1(O)C(=O)N(Cc2ccccc2)c2ccc(F)cc21)c1ccc(C(=O)NCC2CCC3(CC2)OOC2(CCCCC2)OO3)cc1 (stereo not drawn),1920,6.08
COc1cc2c3c(n(C)c(=O)c2cc1OC)-c1cc2c(cc1/C3=C\CN)OCO2,34900,> 100
COc1ccc(/C=C2/N=C(c3ccccc3)N(c3c(C)n(C)n(-c4ccccc4)c3=O)C2=O)cc1OC,60000,> 100
C[C@@H]1CC[C@@H]2[C@@H]1[C@H](OC(=O)/C=C/c1ccccc1)[C@]1(C3CCCCC3)C[C@@H](OC(=O)CO)[C@@]2(C)O1,23.7,0.0978
CCCN1C(=O)N(CCC)C2C1NC(=S)N2/N=C/C=C/c1ccccc1OC (stereo not drawn),478,> 100
CCn1c2ccccc2c2cc(NC(=O)Nc3ccc([N+](=O)[O-])cc3C)ccc21,2200,8
COc1cc2c(c(OC)c1OC)-c1ccc(SC)c(=O)cc1C(NC=O)CC2 (stereo not drawn),–,> 75.5
CCSc1ncnc2c1ncn2C1OC(CO)C(O)C1O (stereo not drawn),975,34
O=C(CSc1nc2ccccc2nc1-c1ccccc1)Nc1ccc(F)cc1,28100,63.8
CC[C@H]1[C@@H]2C=C[C@@H]3[C@H]4C/C=C\C(=O)NCCC[C@@H]5NC(=O)/C(=C(O)/C=C/[C@@H]4C[C@@H]3[C@H]2C[C@H]1C)C5=O,1440,3.81
CN1C(=O)N(C)C2C1NN=c1s/c(=C\c3ccc(Cl)cc3Cl)c(=O)n12 (stereo not drawn),173,> 92.6
Cc1ccc(NC(=O)CC2CC2)cc1-c1ccc(C(=O)NCC2CC2)cc1,> 25000,> 25
CNCC#Cc1c(F)ccc2c1/C(=C/c1[nH]ccc1OC)C(=O)N2,195,3.68
COc1cc(-n2cc(-c3ccc(F)cc3)[nH]c2=O)cc(OC)c1OC,69300,> 100
Cn1cc(C2=C(c3cn(CCCCO)c4ccccc34)C(=O)NC2=O)c2ccccc21,4870,> 25

# System: MDA-MB-231 breast
# Assay: growth of human tumour cells (NCI), 48 h
SMILES,GI50 [µM],TGI [µM]
CCOC(=O)Nc1ccc(-c2nc(-c3cccc(OCCN4CCOCC4)c3)c(-c3ccnc(Br)c3)[nH]2)cc1,3.79,> 100
COc1cc(Cn2c(-c3ccccc3)c(Cl)c3c2-c2oncc2CC3)cc(OC)c1,11.4,44.9
COc1ccc(-c2nn(-c3ccc(NC(=O)c4ccc(Cl)c(Cl)c4)cc3)cc2-c2ccncc2)cc1Cl,0.993,2.96
O=C(CC1(O)C(=O)N(Cc2ccccc2)c2ccc(F)cc21)c1ccc(C(=O)NCC2CCC3(CC2)OOC2(CCCCC2)OO3)cc1 (stereo not drawn),0.423,1.68
COc1cc2c3c(n(C)c(=O)c2cc1OC)-c1cc2c(cc1/C3=C\CN)OCO2,5.8,> 35.4
COc1ccc(/C=C2/N=C(c3ccccc3)N(c3c(C)n(C)n(-c4ccccc4)c3=O)C2=O)cc1OC,> 100,> 100
C[C@@H]1CC[C@@H]2[C@@H]1[C@H](OC(=O)/C=C/c1ccccc1)[C@]1(C3CCCCC3)C[C@@H](OC(=O)CO)[C@@]2(C)O1,2.47,6.61
CCCN1C(=O)N(CCC)C2C1NC(=S)N2/N=C/C=C/c1ccccc1OC (stereo not drawn),2.16,22.5
CCn1c2ccccc2c2cc(NC(=O)Nc3ccc([N+](=O)[O-])cc3C)ccc21,3.66,24.6
